Tests used:
GABAA receptors = experiment: Procedure 2: enhancement of [3H]-flunitrazepam binding in rat cortex membranes; settings: for Enhancement of [3H]-flunitrazepam binding: 20nM [3H]-flunitrazepam, rat cortex membranes, 30 minutes at 37°C
Experimental: (§1) The following test procedures were used to measure activity at (a) GABA autoreceptors and GABAB receptors by inhibition of potassium-evoked GABA and noradrenalin release from rat cortex in vitro (Procedure 1); and (b) GABAA receptors by enhancement of [3H]-flunitrazepam binding in rat cortex in vitro (Procedure 2):
Cortices from six or more rats are excised and homogenised in 50 volumes (volume/weight) 50mM Tris buffer (pH 7.4 at 37°C) using a Polytron homogeniser on speed 5 for 30 seconds. Tissue is kept at O°C throughout the procedure. The homogenate is centrifuged at 40,000 x g for 15 minutes and the pellet resuspended (Polytron 5, 10 sec.) in 50 volumes (original weight) of Tris buffer. Centrifugation and resuspension is repeated followed by incubation at 37°C for 10 minutes. The homogenate is centrifuged (40,000 x g, 15 min), resuspended in 10 volumes (original weight) Tris and stored below -20°C for more than 24 hours.
On the day of the experiment, membranes are thawed at 37°C and made up to 20 volumes (original weight) with Tris Krebs (20mM, see below). The membranes are homogenised (Polytron 5, 30 sec), incubated at 37°C for 15 minutes and centrifuged at 20,000 x g for 10 minutes. This wash and resuspension is repeated two more times with the final pellet resuspended in 100 volumes (original weight) Tris Krebs ready for use.
The test compound (50»l) and 20nM (final concentration) [³H]-flunitrazepam (50»l) are dispensed in triplicate. The reaction is started by the addition of 900»l of membrane preparation. After a 30 minute incubation at 37°C the reaction is stopped by filtration through Whatman GF/B filters under reduced pressure using a Brandell Cell Harvester, with two 7.5 ml filter washings. The radioactivity retained on the filters is measured by liquid scintillation counting. Tris Krebs composition: NaCl-136mM, KCl-5mM, MgSO₄-2mM, KH₂PO₄-2mM, CaCl₂-2mM, Tris buffer (pH 7.4 at 37°C)-20mM, ascorbic acid-lmM, disodium ethylenediamine tetraacetic acid-lmM.
Calculations: Results are calculated as follows: [formula]

GABAB receptors = target: T1, GABAB receptors (Rattus norvegicus, UniProt Q9Z0U4); experiment: Procedure 1: inhibition of potassium-evoked [14C]-noradrenaline release from rat cerebral cortex slices; format: cell-based; settings: for inhibition at 10 µM: 10^-5M, potassium-evoked noradrenaline release, rat cortex slices, failure to inhibit indicates no GABAB agonist activity
T1 construct: Slices (0.25 x 0.25 x 2.0 mm) of rat cerebral cortex; from tissue; host or cells: rat cerebral cortex slices
T1 sequence (Q9Z0U4 20-960): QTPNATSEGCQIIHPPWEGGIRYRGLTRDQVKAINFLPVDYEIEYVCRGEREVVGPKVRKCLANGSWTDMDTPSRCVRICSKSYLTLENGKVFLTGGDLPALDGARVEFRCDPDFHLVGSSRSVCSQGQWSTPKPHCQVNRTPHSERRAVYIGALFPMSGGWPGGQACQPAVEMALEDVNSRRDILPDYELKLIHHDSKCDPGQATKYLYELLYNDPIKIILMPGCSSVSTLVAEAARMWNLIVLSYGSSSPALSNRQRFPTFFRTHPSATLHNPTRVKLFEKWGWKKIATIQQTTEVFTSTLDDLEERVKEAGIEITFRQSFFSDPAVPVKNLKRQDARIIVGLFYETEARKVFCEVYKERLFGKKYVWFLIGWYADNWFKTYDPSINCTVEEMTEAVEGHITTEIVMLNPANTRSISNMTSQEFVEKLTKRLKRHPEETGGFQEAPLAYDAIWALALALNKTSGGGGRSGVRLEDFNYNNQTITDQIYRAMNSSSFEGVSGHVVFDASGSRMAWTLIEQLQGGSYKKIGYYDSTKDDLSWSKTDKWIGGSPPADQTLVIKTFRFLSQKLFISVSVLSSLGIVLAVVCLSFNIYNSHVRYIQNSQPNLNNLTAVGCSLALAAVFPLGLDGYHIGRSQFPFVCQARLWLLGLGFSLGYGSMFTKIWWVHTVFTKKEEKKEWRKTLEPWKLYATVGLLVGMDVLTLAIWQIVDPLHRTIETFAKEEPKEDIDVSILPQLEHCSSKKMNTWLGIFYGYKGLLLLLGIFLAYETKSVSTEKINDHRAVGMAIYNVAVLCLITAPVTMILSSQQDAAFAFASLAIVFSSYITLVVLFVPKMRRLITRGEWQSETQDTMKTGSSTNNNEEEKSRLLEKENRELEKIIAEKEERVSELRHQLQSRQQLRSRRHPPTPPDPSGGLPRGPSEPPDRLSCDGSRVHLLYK
T1 sequence (O88871 41-940 partner): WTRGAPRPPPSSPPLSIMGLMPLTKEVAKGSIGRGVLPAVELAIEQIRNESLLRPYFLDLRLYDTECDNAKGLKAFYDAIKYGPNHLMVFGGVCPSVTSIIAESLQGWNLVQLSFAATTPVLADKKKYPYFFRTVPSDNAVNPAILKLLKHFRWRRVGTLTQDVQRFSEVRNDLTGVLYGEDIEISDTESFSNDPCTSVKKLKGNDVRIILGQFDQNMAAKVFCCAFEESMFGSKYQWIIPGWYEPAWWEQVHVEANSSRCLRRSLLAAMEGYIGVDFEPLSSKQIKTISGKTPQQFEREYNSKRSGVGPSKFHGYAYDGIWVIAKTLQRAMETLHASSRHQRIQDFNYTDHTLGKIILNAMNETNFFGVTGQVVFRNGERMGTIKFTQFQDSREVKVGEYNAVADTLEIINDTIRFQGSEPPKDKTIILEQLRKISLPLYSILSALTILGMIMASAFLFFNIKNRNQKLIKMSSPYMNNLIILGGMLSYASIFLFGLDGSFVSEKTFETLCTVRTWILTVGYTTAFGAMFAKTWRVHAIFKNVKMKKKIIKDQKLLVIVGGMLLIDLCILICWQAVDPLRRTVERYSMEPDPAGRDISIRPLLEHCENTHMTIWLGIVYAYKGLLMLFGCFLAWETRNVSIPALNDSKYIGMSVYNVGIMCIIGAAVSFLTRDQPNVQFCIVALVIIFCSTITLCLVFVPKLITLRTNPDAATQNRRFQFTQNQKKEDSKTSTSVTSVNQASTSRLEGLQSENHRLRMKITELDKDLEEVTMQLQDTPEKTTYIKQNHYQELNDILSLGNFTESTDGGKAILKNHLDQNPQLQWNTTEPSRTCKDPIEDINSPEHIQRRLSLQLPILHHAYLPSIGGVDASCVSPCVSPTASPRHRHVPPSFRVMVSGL
Experimental: as §1
(§2) Slices (0.25 x 0.25 x 2.0 mm) of rat cerebral cortex are prepared using a McIlwain tissue chopper. The slices are incubated in Krebs-Henseleit solution containing [³H]-GABA (10⁻⁷M) and [¹⁴C]-noradrenaline (10⁻⁷M) in the presence of amino-oxyacetic acid (AOAA) (10⁻⁵M), pargyline (10⁻⁶M) and ascorbic acid (10⁻⁴M), for 20 minutes at 37°C, rinsed with 5 ml aliquots of Krebs-Henseleit solution and transferred to 10 superfusion chambers (volume 300»l). The slices are continuously superfused with Krebs-Henseleit solution (0.4 ml min⁻¹) containing AOAA (10⁻⁵M) and fractions of the superfusate collected every 4 minutes. Transmitter release is induced by 4 minute exposure to a Krebs-Henseleit solution containing 25 mM potassium (with concomitant reduction in sodium to maintain osmolarity) after 68 (S₁) and 92 (S₂) minutes of superfusion. The compound under study is added to the superfusing medium 20 minutes prior to the second potassium stimulation. The residual radioactivity in the slices at the end of the experiment together with that in the superfusate fractions is measured by liquid scintillation counting using a dual label programme for tritium and carbon-14. Calculations: The amount of radioactivity (either tritium or carbon-14) in each fraction is expressed as a percentage of the respective total radioactivity in the tissue at the start of the respective collection period. The amount of radioactivity released above basal by the increased potassium is calculated and the ratio S2/S1 obtained. The S2/S1 ratio from drug-treated slices is expressed as a percentage of the control S2/S1 ratio. For compounds achieving inhibition of 30% or more pD₂ values are calculated from plots of inhibition of release versus concentration of drug.

GABA autoreceptor [1] = experiment: Procedure 1: inhibition of potassium-evoked [3H]-GABA release from rat cerebral cortex slices; format: cell-based; settings: for GABA autoreceptor pD2 values: inhibition of 25 mM potassium-evoked [3H]-GABA release, rat cortex slices in vitro
Experimental: as §1
as §2, with “ratio.” for “ratio. For compounds achieving inhibition of 30% or more pD₂ values are calculated from plots of inhibition of release versus concentration of drug.”

GABA autoreceptor [2] = experiment: Procedure 3: effect on a GABA synapse in vivo, caudate-evoked synaptic inhibition of nigral neurones, iontophoretic ejection; set-up: species or system rat; settings: anaesthetized male albino rats; ejected iontophoretically in the vicinity of nigral neurones; action reversible
Experimental: The compounds were also tested for their effect on a GABA synapse in vivo in the following procedure:
(§3) Experiments were performed on male albino rats (240-280g) lightly anaesthetized with urethane (1.2-1.4 g/kg i.p.) or Halothane (0.7-1.0% in 0₂). The animal's temperature was maintained between 36-38°C via a thermostatically controlled heating blanket.
(§4) The caudate nucleus and substantia nigra were approached dorsally after exposing the overlying cortex. Pulsations of the brain and cerebral oedema were minimised by allowing cerebral spinal fluid to leak from a cisternal puncture. The exposed cortex was bathed in warm liquid paraffin throughout the experiment. A coaxial bipolar stimulating electrode (tip separation 0.25mm) was positioned stereotaxically in the caudate nucleus such that the tip of the electrode corresponded to the area delineated by the co-ordinates L 2.5; A 8.5-95; D 5. (Paxinos and Watson 1986). […]
(§5) Extracellular recordings were obtained from single neurones in the ipsilateral substantia nigra via either the centre barrel (3.5M NaCl) of a multibarrelled microelectrode or a single barrelled electrode (3.5M NaCl), attached to but protruding 10-20 » beyond, a multibarrelled electrode. […] Effects of agonist drugs on the GABA autoreceptor could be measured as an attenuation of the synaptic inhibition evoked by stimulation of the caudate. […]

[3] = test system: postsynaptic GABAA receptors; experiment: Procedure 3: drug ejected onto nigral neurones in vivo, test of postsynaptic GABAA receptor effect; set-up: species or system rat; settings: anaesthetized male albino rats; ejected iontophoretically in the vicinity of nigral neurones
Experimental: as §3, §4, §5

| SMILES | Enhancement of [3H]-flunitrazepam binding (GABAA receptors) | inhibition at 10 µM (GABAB receptors) [%] | activity at GABAA sites in vitro (GABAA receptors; in vitro) | activity at GABAB sites in vitro (GABAB receptors; in vitro) | GABA autoreceptor pD2 values (GABA autoreceptor [1]) | synaptically-evoked, GABA-mediated inhibition in the substantia nigra (GABA autoreceptor [2]) | effect on postsynaptic GABAA receptors [3] | activity at the GABA autoreceptor (GABA autoreceptor [1]; in vitro) |
| --- | --- | --- | --- | --- | --- | --- | --- | --- |
| O=C(O)CCCN(Cc1ccc(Cl)cc1)Cc1ccc(Cl)cc1 [Example 2, 4-[N,N-Bis-(4-Chlorobenzyl)amino]butyric acid] | 0 | 0 | – | – | 7.0 | – | – | – |
| NC(=O)CCCN(Cc1ccc(Cl)cc1)Cc1ccc(Cl)cc1 [Example 3, 4-[N,N-Bis-(4-chlorobenzyl)amino]butyramide] | 0 | 0 | – | – | 6.6 | – | – | – |
| NC(=O)CCCN(Cc1ccccc1)Cc1ccccc1 [Example 4, 4-(N,N-Dibenzylamino)butyramide] | 0 | > 20 | – | – | 7.0 | – | – | – |
| O=C(O)CCCN(Cc1ccccc1)Cc1ccccc1 [Example 5, 4-(N,N-Dibenzylamino)butyric acid] | 0 | 20 | – | – | 7.1 | almost abolished | without affecting | – |
| Cc1ccc(CN(CCCC(=O)O)Cc2ccc(C)cc2)cc1 [Example 8, 4-[N,N-Bis-(4-methylbenzyl)amino]butyric acid] | 0 | 10 | – | – | 7.4 | – | – | – |
| O=C(O)CCCN(Cc1ccc(Cl)c(Cl)c1)Cc1ccc(Cl)c(Cl)c1 [Example 10, 4-[N,N-Bis-(3,4-dichlorobenzyl)amino]butyric acid] | 0 | 0 | – | – | 7.5 | – | – | – |
| NC(=O)CCC/N=C(\c1ccc(Cl)cc1)c1cc(F)ccc1O [Progabide, reference compound] | – | – | – | – | – | – | – | active |

Now from value to molecule, other results behind:

| Enhancement of [3H]-flunitrazepam binding (GABAA receptors) | inhibition at 10 µM (GABAB receptors) [%] | activity at GABAA sites in vitro (GABAA receptors; in vitro) | activity at GABAB sites in vitro (GABAB receptors; in vitro) | SMILES | GABA autoreceptor pD2 values (GABA autoreceptor [1]) | synaptically-evoked, GABA-mediated inhibition in the substantia nigra (GABA autoreceptor [2]) | effect on postsynaptic GABAA receptors [3] | activity at the GABA autoreceptor (GABA autoreceptor [1]; in vitro) |
| --- | --- | --- | --- | --- | --- | --- | --- | --- |
| 0 | 0 | – | – | COc1ccc(CN(CCCC(N)=O)Cc2ccc(OC)cc2)cc1 [Example 12, 4-[N,N-Bis-(4-Methoxybenzyl)amino]butyramide] | 6.0 | – | – | – |
| 0 | 0 | – | – | CN(CCCC(N)=O)Cc1ccc(Cl)cc1 [Example 24, 4-[(N-(p-Chlorobenzyl)-N-methyl)amino]butyramide] | 7.5 | – | – | – |
| – | – | little or no activity | little or no activity | CCCC/N=C(/c1cc(Cl)ccc1O)c1ccccc1Cl [fengabine, reference compound] | 8.0 | – | – | – |

Source: patent publication EP0345068B1, “Agonist of gamma-aminobutyric acid” (JOHN WYETH & BROTHER LIMITED, priority 1988, dated 1989)
